The assay has as its system individual murine olfactory neurons. The experiment in a line: Ca2+ imaging (fura-2) of isolated murine olfactory neurons contacted with isovaleric acid. Format: cell-based, Balb/C mice. As for the experimental part: Essentially, individual murine olfactory neurons isolated from an enzymatically and mechanically dissociated preparations of murine olfactory epithelium. A very mild trypsin dissociation allows to obtain a single cell suspension in which neurons still bear their axon and dendrites and can therefore be picked based on their morphology. The neurons were loaded with a Ca^2+-sensing fluorescent dye (fura-2) and contacted with isovaleric acid (at 10–100 μM). Single neurons that responded to the isovaleric acid stimulus, as indicated by transient increases in the concentration of intracellular Ca2+ were identified in a microscope field and collected using a suction microcapillary. […]
Olfactory neuroepithelium was dissected from Balb/C mice and placed in a small Petri dish with phosphate-buffered saline (PBS) without Ca^2+ and Mg^2+. […] After dissociation, the tissue was transferred into 5 ml PBS without Ca^2+ and Mg^2+ and the tissue was triturated very gently by pipetting up and down 4–5 times with plastic disposable, progress of cell dissociation was monitored under inverted microscope. […] Isolated olfactory sensory neurons were identified in an inverted microscope field either by their morphology alone (for random control neurons) or by the morphology and ability to respond to IVA as detected by Ca^2+-imaging. […]

`CC(C)CC(=O)O` [isovaleric acid]: for the setting “IVA at either 100 μM or 10 μM, single isolated neuron, FIG. 3”, the “response of a single olfactory neuron indicated by changes in fura-2 fluorescence intensity ratios (340/380 nm)” value is reported as “response”. In addition, where the note is “isovaleric acid at 10–100 μM, eleven murine olfactory receptors, mOR IVA A through mOR IVA L”, the “murine olfactory receptors activated (receptors expressed in IVA-responding neurons)” value was “activated”.
